Assay results: patent US20210261570A1, “ANTIBIOTIC RESISTANCE BREAKERS” (KING'S COLLEGE LONDON, priority 2017, published 2021)
Converted amounts (≈) assume the structure as drawn. “Also recorded” adds a separate entry of the source. Structures can show the parent of a compound that is named as a salt. Where two headings read alike, the source gives them in different places.

How the values were obtained:
EC12923 = test: MIC, microdilution broth method; format: cell-based
S. aureus SA2 = format: cell-based; details: for MIC: S. aureus SA2, in µg/mL
E. faecium EF2 = test: MIC, extended Gram-positive panel; format: cell-based; details: for MIC: E. faecium EF2, in µg/mL
S. aureus SA4 = test: MIC, extended Gram-positive panel; format: cell-based; details: for MIC: S. aureus SA4
S. aureus SA10 = test: MIC, extended Gram-positive panel; format: cell-based; details: for MIC: S. aureus SA10, in µg/mL
EMRSA 15 strain = test: Reserpine assay; format: cell-based, S. aureus; details: compound at 0.25×MIC with reserpine
Method: (§1) A simple plate based method was used as described by Beyer et al. (24). […] Reserpine was added at a final concentration of 10 µg/mL (made up at 40 μg/mL in TSB, 50 μL per well). The bacteria were added at an OD of 0.01 in TSB (100 μL/well). The plate was a normal clear plate as used for MICs. OD was read every 30 minutes for 9 hours (the literature states 7 hours, but this is strain-dependent). Blanks of TSB and water were added to ensure no infections were present.
(§2) The mechanism of inhibition for reserpine involves direct binding to and competitive inhibition of the efflux pump during drug/H^+ antiport. This assay was validated as a method for testing active efflux of fluoroquinolones in Staphylococcus strains by Beyer et al. (24).

MSSA 9144 strain = test: Reserpine assay; format: cell-based, S. aureus; details: compound at 0.25×MIC with reserpine
Method: as §1, §2

S. aureus SA8 = test: MIC, extended Gram-positive panel; format: cell-based; details: for MIC: S. aureus SA8
S. aureus SA9 = test: MIC, extended Gram-positive panel; format: cell-based; details: for MIC: S. aureus SA9
S. aureus SA6 = test: MIC, extended Gram-positive panel; format: cell-based; details: for MIC: S. aureus SA6
S. aureus SA5 = test: MIC, extended Gram-positive panel; format: cell-based; details: for MIC: S. aureus SA5
S. aureus SA1 = format: cell-based; details: for MIC: S. aureus SA1
S. epidermidis SE1 = test: MIC, extended Gram-positive panel; format: cell-based; details: for MIC: S. epidermidis SE1, in µg/mL
S. aureus SA3 = test: MIC, extended Gram-positive panel; format: cell-based; details: for MIC: S. aureus SA3
S. haemolyticus SH1 = test: MIC, extended Gram-positive panel; format: cell-based; details: for MIC: S. haemolyticus SH1
S. aureus SA7 = test: MIC, extended Gram-positive panel; format: cell-based; details: for MIC: S. aureus SA7
E. faecalis EF1 = test: MIC, extended Gram-positive panel; format: cell-based; details: for MIC: E. faecalis EF1
M6 = test: MIC, microdilution broth method; format: cell-based
Ab17978 = test: MIC, microdilution broth method; format: cell-based
VRE12201 = test: MIC, microdilution broth method; format: cell-based, E. faecalis
MSSA9144 = test: MIC, microdilution broth method; format: cell-based, S. aureus
EMRSA16 = test: MIC, microdilution broth method; format: cell-based, Staphylococcus aureus
VSE775 = test: MIC, microdilution broth method; format: cell-based, E. faecalis
VRE12204 = test: MIC, microdilution broth method; format: cell-based, E. faecium
EMRSA15 = test: MIC, microdilution broth method; format: cell-based, Staphylococcus aureus
PA01 = test: MIC, microdilution broth method; format: cell-based, Pseudomonas aeruginosa
AYE = test: MIC, microdilution broth method; format: cell-based, Acinetobacter baumannii; details: Normal (without PMBN), in µg/mL
KP13368 = test: MIC, microdilution broth method; format: cell-based; details: in µg/mL
[1] = tested on: multidrug resistant strains; test: Reserpine growth assay in several multidrug resistant strains; format: cell-based; details: FIG. 27
Method: Reserpine was added at a final concentration of 10 g/mL (made up at 40 μg/mL in TSB, 50 μL per well). The bacteria were added at an OD of 0.01 in TSB (100 μL/well). The plate was a normal clear plate as used for MICs. OD was read every 30 minutes for 9 hours (the literature states 7 hours, but this is strain-dependent). Blanks of TSB and water were added to ensure no infections were present.

[2] = EC12923, Normal (without PMBN), in µg/mL

C[C@H]1COc2c(N3CCN(c4ccncn4)CC3)c(F)cc3c(=O)c(C(=O)O)cn1c23 [ML-83-001, (S)-9-fluoro-3-methyl-7-oxo-10-(4-(pyrimidin-4-yl)piperazin-1-yl)-2,3-dihydro-7H-[1,4]oxazino[2,3,4-ij]quinoline-6-carboxylic Acid]
MIC (EC12923; [2]): 1-4

CCn1cc(C(=O)O)c(=O)c2cc(F)c(N3CCN(Cc4cccc5ccccc45)CC3)cc21 [ML-77-021]
MIC (S. aureus SA2): 1
Fold decrease (S. aureus SA2; SA2, MIC of ML-77-005 vs CIP, of ML-77-021 vs NOR): 8-64
MIC (E. faecium EF2): 2-4
Fold decrease (E. faecium EF2; EF2, MIC of ML-77-005 vs CIP, of ML-77-021 vs NOR): ≥32
MIC (S. aureus SA4): 2 mg/L (≈ 4.35 µM)
Fold decrease (S. aureus SA4; SA4, MIC of ML-77-005 vs CIP, of ML-77-021 vs NOR): 32
MIC (S. aureus SA10): 2
Fold decrease (S. aureus SA10; SA10, MIC of ML-77-005 vs CIP, of ML-77-021 vs NOR): 64
efflux by the strain (reserpine assay) (EMRSA 15 strain): cannot be effluxed
efflux by the strain (reserpine assay) (EMRSA 15 strain; listed as napthyl-linked norfloxacin): not effluxed
efflux by the strain (reserpine assay) (MSSA 9144 strain): cannot be effluxed; also recorded: not effluxed
MIC (S. aureus SA8): 2 mg/L (≈ 4.35 µM)
Fold decrease (S. aureus SA8; SA8, MIC of ML-77-005 vs CIP, of ML-77-021 vs NOR): 64
MIC (S. aureus SA9): 2 mg/L (≈ 4.35 µM)
Fold decrease (S. aureus SA9; SA9, MIC of ML-77-005 vs CIP, of ML-77-021 vs NOR): ≥64
MIC (S. aureus SA6): 2 mg/L (≈ 4.35 µM)
Fold decrease (S. aureus SA6; SA6, MIC of ML-77-005 vs CIP, of ML-77-021 vs NOR): ≥64
MIC (S. aureus SA5): 2 mg/L (≈ 4.35 µM)
Fold decrease (S. aureus SA5; SA5, MIC of ML-77-005 vs CIP, of ML-77-021 vs NOR): ≥64
MIC (S. aureus SA1): 4 mg/L (≈ 8.7 µM)
Fold decrease (S. aureus SA1; SA1, MIC of ML-77-005 vs CIP, of ML-77-021 vs NOR): ≥32
MIC (S. epidermidis SE1): 1
Fold decrease (S. epidermidis SE1; SE1, MIC of ML-77-005 vs CIP, of ML-77-021 vs NOR): 1-4
MIC (S. aureus SA3): 2 mg/L (≈ 4.35 µM)
Fold decrease (S. aureus SA3; SA3, MIC of ML-77-005 vs CIP, of ML-77-021 vs NOR): 32
MIC (S. haemolyticus SH1): 4 mg/L (≈ 8.7 µM)
Fold decrease (S. haemolyticus SH1; SH1, MIC of ML-77-005 vs CIP, of ML-77-021 vs NOR): 32
MIC (S. aureus SA7): 2 mg/L (≈ 4.35 µM)
Fold decrease (S. aureus SA7; SA7, MIC of ML-77-005 vs CIP, of ML-77-021 vs NOR): ≥64
MIC (E. faecalis EF1): 4 mg/L (≈ 8.7 µM)
Fold decrease (E. faecalis EF1; EF1, MIC of ML-77-005 vs CIP, of ML-77-021 vs NOR): ≥32

C[C@H]1COc2c(N3CCN(c4ccncc4)CC3)c(F)cc3c(=O)c(C(=O)O)cn1c23 [ML-83-019]
MIC (M6; M6, Normal (without PMBN), in µg/mL): 64
MIC (Ab17978; Ab17978, Normal (without PMBN)): 64 mg/L (≈ 151 µM)
MIC (EC12923; [2]): 32

CCn1cc(C(=O)O)c(=O)c2cc(F)c(N3CCN(Cc4ccc5ccccc5c4)CC3)cc21 [ML-77-31]
MIC (VRE12201; VRE12201, in µg/mL): 4
MIC (M6; M6, in µg/mL): 16-32
MIC (MSSA9144): 0.25 mg/L (≈ 0.544 µM)
MIC (EMRSA16; EMRSA16): 4 mg/L (≈ 8.7 µM)
MIC (VSE775; VSE775): 4 mg/L (≈ 8.7 µM)
MIC (VRE12204): 2 mg/L (≈ 4.35 µM)
MIC (EMRSA15; EMRSA15, in µg/mL): 4

O=C(O)c1cn(C2CC2)c2cc(N3CCN(Cc4cccc5ccccc45)CC3)c(F)cc2c1=O [ML-77-005]
MIC (S. aureus SA2): 0.5
MIC (E. faecium EF2): 2
MIC (S. aureus SA4): 2 mg/L (≈ 4.24 µM)
MIC (S. aureus SA10): 2
MIC (S. aureus SA8): 2 mg/L (≈ 4.24 µM)
MIC (S. aureus SA9): 2 mg/L (≈ 4.24 µM)
MIC (S. aureus SA6): 2 mg/L (≈ 4.24 µM)
MIC (S. aureus SA5): 2 mg/L (≈ 4.24 µM)
MIC (S. aureus SA1): 2 mg/L (≈ 4.24 µM)
MIC (S. aureus SA3): 2 mg/L (≈ 4.24 µM)
MIC (S. haemolyticus SH1): 4 mg/L (≈ 8.48 µM)
MIC (S. aureus SA7): 2 mg/L (≈ 4.24 µM)
MIC (E. faecalis EF1): 2 mg/L (≈ 4.24 µM)

CCn1cc(C(=O)O)c(=O)c2cc(F)c(N3CCN(Cc4ccc(F)c5ccccc45)CC3)cc21 [ML-77-49]
MIC (VRE12201; VRE12201, in µg/mL): 16
MIC (MSSA9144): 8 mg/L (≈ 16.8 µM)
MIC (EMRSA16; EMRSA16): 8 mg/L (≈ 16.8 µM)
MIC (VSE775; VSE775): 8 mg/L (≈ 16.8 µM)
MIC (EMRSA15; EMRSA15, in µg/mL): 8

O=C(O)c1cn(C2CC2)c2cc(N3CCNCC3)c(F)cc2c1=O [Ciprofloxacin, ciprofloxacin, reference compound]
MIC (S. epidermidis SE1): 0.5-1

CCn1cc(C(=O)O)c(=O)c2cc(F)c(N3CCN(Cc4ccc(S(=O)(=O)NCCc5c[nH]c6ccccc56)cc4)CC3)cc21 [ML-77-146]
MIC +PMBN (M6; M6, +PMBN): 28
MIC +PMBN (PA01; PA01, +PMBN): 0.25
MIC +PMBN (Ab17978; Ab17978, +PMBN): 4

CCn1cc(C(=O)O)c(=O)c2cc(F)c(N3CCNCC3)cc21 [NOR]
MIC (S. aureus SA2): 8-64
MIC (S. aureus SA4): 64 mg/L (≈ 200 µM)
MIC (S. epidermidis SE1): 1-4
MIC (S. aureus SA3): 64 mg/L (≈ 200 µM)

C[C@H]1COc2c(N3CC[C@@H](Nc4cnccn4)C3)c(F)cc3c(=O)c(C(=O)O)cn1c23 [KSN-BL1]
MIC (M6; Klebsiella pneumoniae (M6), read-out: MIC): 0.5 mg/L (≈ 1.18 µM)

CCn1cc(C(=O)O)c(=O)c2cc(F)c(N3CCN(Cc4cccc5ccccc45)CC3)nc21 [ML-77-025]
fold potentiation of MIC (EMRSA16; EMRSA16, vs parent fluoroquinolone): 64-128 fold
fold potentiation of MIC (EMRSA15; EMRSA15, vs parent fluoroquinolone): 64-128 fold

CCn1cc(C(=O)O)c(=O)c2cc(F)c(N3CCNCC3)cc21 [Norfloxacin, norfloxacin, reference compound]
efflux by the strain (reserpine assay) (EMRSA 15 strain): effluxed
efflux by the strain (reserpine assay) (MSSA 9144 strain): effluxed

C[C@H]1COc2c(N3CCC(n4cccn4)CC3)c(F)cc3c(=O)c(C(=O)O)cn1c23 [ML-83-041, (S)-10-(4-(1H-pyrazol-1-yl)piperidin-1-yl)-9-fluoro-3-methyl-7-oxo-2,3-dihydro-7H-[1,4]oxazino[2,3,4-ij]quinoline-6-carboxylic Acid]
MIC (AYE): 64-128
MIC (KP13368; Normal (without PMBN)): 16-32
MIC (EC12923; [2]): 1-2

Cc1cc(N2CCN(c3c(F)cc4c(=O)c(C(=O)O)cn5c4c3OC[C@@H]5C)CC2)nc(C(C)C)n1 [ML-83-012, (S)-9-fluoro-10-(4-(2-isopropyl-6-methylpyrimidin-4-yl)piperazin-1-yl)-3-methyl-7-oxo-2,3-dihydro-7H-[1,4]oxazino[2,3,4-ij]quinoline-6-carboxylic Acid Hydrochloride]
MIC (VRE12201; Enterococcus faecalis, Enterococcus (VRE12201)): ≤ 0.125 mg/L
MIC (VRE12201; VRE12201, Gram-positive, in µg/mL): 0.5-1
MIC (M6; Klebsiella pneumoniae, Klebsiella pneumoniae (M6)): 16 mg/L
MIC (M6; M6, Gram-negative, in µg/mL): 16
MIC (PA01; Pseudomonas aeruginosa, Pseudomonas aeruginosa (PA01)): 32 mg/L
MIC (Ab17978; Acinetobacter baumannii, Acinetobacter baumannii (AB17978)): 8 mg/L
MIC (EMRSA16; EMRSA16, Gram-positive): 16 mg/L
MIC (EMRSA16; Staphylococcus aureus, Staphylococcus aureus (EMRSA16)): 2 mg/L
MIC (KP13368; Gram-negative): 64
MIC (EC12923; Escherichia coli, Escherichia coli (EC12923)): 4 mg/L
MIC (VSE775; Enterococcus faecalis): 0.5 mg/L
MIC (VSE775; VSE775, Gram-positive): 1 mg/L
MIC (EMRSA15; EMRSA15, Gram-positive, in µg/mL): 16
MIC (EMRSA15; Staphylococcus aureus): 2 mg/L

Cc1cc(C)nc(N[C@@H]2CCN(c3c(F)cc4c(=O)c(C(=O)O)cn5c4c3OC[C@@H]5C)C2)n1 [KSN-BL7]
efflux from the bacteria (reserpine growth assay) [1]: reduced efflux
